# Experimental data reported in ChEMBL document CHEMBL6153037, “Developing dual-responsive quinolinium prodrugs of 8-hydroxyquinoline by harnessing the dual chelating sites” (Eur J Med Chem, 2025).
# Activity calls are given as the source filed them. The calls are words filed in the database; no cut-off is given here.
# How the values were obtained:
# [1] = Prodrug conversion in PBS at pH 7.4 containing H2O2 assessed as 8-HQ release by measuring retention time at 50 uM measured after 15 mins by HPLC analysis; assay type: ADME; conditions: buffer, pH 7.4, 0.25 h
# [2] = Prodrug conversion in PBS at pH 7.4 containing H2O2 assessed as 4-hydroxybenzyl alcohol release by measuring retention time at 50 uM measured after 15 mins by HPLC analysis; assay type: ADME; conditions: buffer, pH 7.4, 0.25 h
# [3] = Stability of compound in PBS at pH 7.4 containing H2O2 assessed as compound remaining at 50 uM measured after 30 mins by HPLC analysis; assay type: physicochemical; conditions: buffer, pH 7.4, 0.5 h
# [4] = Prodrug conversion in solution containing Cu(II) assessed as 8-HQ-Cu(II) complex formation at 50 uM measured upto 30 mins by UV-Vis spectrophotometry; assay type: ADME; conditions: 0.5 h
# MDA-MB-231 [5] = test: Cytotoxicity against CuCl2-treated human MDA-MB-231 cells assessed as inhibition of cell viability incubated for 48 hrs by MTT assay; assay type: functional, cell-based; conditions: MDA-MB-231, 48 h
# A549 = test: Cytotoxicity against CuCl2-treated human A549 cells assessed as inhibition of cell viability incubated for 48 hrs by MTT assay; assay type: functional, cell-based; conditions: A549, 48 h
# MDA-MB-231 [6] = test: Cytotoxicity against LPS-treated human MDA-MB-231 cells incubated for 48 hrs by MTT assay; assay type: functional, cell-based
# MDA-MB-231 [7] = test: Cytotoxicity against human MDA-MB-231 cells assessed as increase in red fluorescence at 0.4 to 0.8 uM by Calcein AM/PI staining based analysis; assay type: functional, cell-based; conditions: dose 0.4-0.8 µM
# MDA-MB-231 [8] = test: Induction of apoptosis in human MDA-MB-231 cells assessed as viable cells at 0.4 uM incubated for 24 hrs by Annexin V-FITC/PI staining based flow cytometry (reference value: 86.2 %); assay type: functional; conditions: read-out: Activity
# MDA-MB-231 [9] = test: Induction of apoptosis in human MDA-MB-231 cells assessed as early apoptotic cells at 0.4 uM incubated for 24 hrs by Annexin V-FITC/PI staining based flow cytometry (reference value: 7.39 %); assay type: functional
# MDA-MB-231 [10] = test: Induction of apoptosis in human MDA-MB-231 cells assessed as late apoptotic cells at 0.4 uM incubated for 24 hrs by Annexin V-FITC/PI staining based flow cytometry (reference value: 5.81 %); assay type: functional
# MDA-MB-231 [11] = test: Induction of apoptosis in human MDA-MB-231 cells assessed as viable cells at 0.8 uM incubated for 24 hrs by Annexin V-FITC/PI staining based flow cytometry (reference value: 86.2 %); assay type: functional; conditions: read-out: Activity
# MDA-MB-231 [12] = test: Induction of apoptosis in human MDA-MB-231 cells assessed as early apoptotic cells at 0.8 uM incubated for 24 hrs by Annexin V-FITC/PI staining based flow cytometry (reference value: 7.39 %); assay type: functional
# MDA-MB-231 [13] = test: Induction of apoptosis in human MDA-MB-231 cells assessed as viable cells at 1.2 uM incubated for 24 hrs by Annexin V-FITC/PI staining based flow cytometry (reference value: 86.2 %); assay type: functional; conditions: read-out: Activity
# MDA-MB-231 [14] = test: Induction of apoptosis in human MDA-MB-231 cells assessed as early apoptotic cells at 1.2 uM incubated for 24 hrs by Annexin V-FITC/PI staining based flow cytometry (reference value: 7.39 %); assay type: functional
# MDA-MB-231 [15] = test: Induction of apoptosis in human MDA-MB-231 cells assessed as late apoptotic cells at 1.2 uM incubated for 24 hrs by Annexin V-FITC/PI staining based flow cytometry (reference value: 5.81 %); assay type: functional
# MDA-MB-231 [16] = test: Induction of apoptosis in human MDA-MB-231 cells assessed as necrotic cells at 1.2 uM incubated for 24 hrs by Annexin V-FITC/PI staining based flow cytometry (reference value: 0.59 %); assay type: functional
# [17] = Induction of apoptosis in human MCF-10A cells assessed as viable cells at 0.4 uM incubated for 24 hrs by Annexin V-FITC/PI staining based flow cytometry (reference value: 92.5 %); assay type: toxicity, cell-based; conditions: read-out: Activity
# MCF-10A [18] = test: Induction of apoptosis in human MCF-10A cells assessed as necrotic cells at 0.4 uM incubated for 24 hrs by Annexin V-FITC/PI staining based flow cytometry (reference value: 1.38 %); assay type: toxicity, cell-based
# MCF-10A [19] = test: Induction of apoptosis in human MCF-10A cells assessed as early apoptotic cells at 0.8 uM incubated for 24 hrs by Annexin V-FITC/PI staining based flow cytometry (reference value: 2.96 %); assay type: toxicity, cell-based
# MCF-10A [20] = test: Induction of apoptosis in human MCF-10A cells assessed as late apoptotic cells at 0.8 uM incubated for 24 hrs by Annexin V-FITC/PI staining based flow cytometry (reference value: 3.13 %); assay type: toxicity, cell-based
# MCF-10A [21] = test: Induction of apoptosis in human MCF-10A cells assessed as necrotic cells at 0.8 uM incubated for 24 hrs by Annexin V-FITC/PI staining based flow cytometry (reference value: 1.38 %); assay type: toxicity, cell-based
# [22] = Induction of apoptosis in human MCF-10A cells assessed as viable cells at 1.2 uM incubated for 24 hrs by Annexin V-FITC/PI staining based flow cytometry (reference value: 92.5 %); assay type: toxicity, cell-based; conditions: read-out: Activity
# MCF-10A [23] = test: Induction of apoptosis in human MCF-10A cells assessed as late apoptotic cells at 1.2 uM incubated for 24 hrs by Annexin V-FITC/PI staining based flow cytometry (reference value: 3.13 %); assay type: toxicity, cell-based
# MDA-MB-231 [24] = test: Induction of cell cycle arrest in human MDA-MB-231 cells assessed as accumulation at G0/G1 phase at 0.4 uM by PI staining based flow cytometry (reference value: 64.6 %); assay type: functional
# MDA-MB-231 [25] = test: Induction of cell cycle arrest in human MDA-MB-231 cells assessed as accumulation at G0/G1 phase at 0.8 uM by PI staining based flow cytometry (reference value: 64.6 %); assay type: functional
# MDA-MB-231 [26] = test: Anti-migration activity in human MDA-MB-231 cells at 0.4 uM incubated for 24 hrs by wound healing assay (reference value: 45.4 %); assay type: functional
# MDA-MB-231 [27] = test: Anti-migration activity in human MDA-MB-231 cells at 0.8 uM incubated for 24 hrs by wound healing assay (reference value: 45.4 %); assay type: functional
# MDA-MB-231 [28] = test: Inhibition of mitochondrial membrane potential in human MDA-MB-231 cells assessed as increase in green fluorescence at 0.8 uM incubated for 24 hrs by JC-1 dye based analysis; assay type: functional, cell-based
# MDA-MB-231 [29] = test: Inhibition of mitochondrial membrane potential in human MDA-MB-231 cells assessed as increase in intracellular calcium level at 0.4 to 0.8 uM incubated for 24 hrs by Fluo-4 AM dye based analysis; assay type: functional, cell-based; conditions: dose 0.4-0.8 µM
# MDA-MB-231 [30] = test: Antitumor activity against human MDA-MB-231 cells assessed as sphere-forming efficiency incubated for 6 hrs followed by medium replacement without compound measured after 6 days by microscopic analysis (reference value: 1.07 %); assay type: functional
# MDA-MB-231 [31] = test: Antitumor activity against human MDA-MB-231 cells xenografted in BALB/c nude mouse at 20 mg/kg, iv administered every two days for 21 days relative to control; assay type: functional; conditions: MDA-MB-231, 504 h, time 21 day, read-out: TGI
# [32] = Toxicity in BALB/c nude mouse xenografted with human MDA-MB-231 cells assessed as body weight change at 10 to 20 mg/kg, iv administered every two days for 21 days; assay type: organism-based; conditions: in vivo, 504 h, dose 10-20 mg/kg, time 21 day
smiles,measurement,setting,value
CC1(C)OB(c2ccc(C[n+]3cccc4cccc(O)c43)cc2)OC1(C)C.[Br-],Retention_time,[1],2.8 min
same,Retention_time,[2],10.2 min
same,Stability,[3],Unstable
same,Drug metabolism,[4],metabolite_detected
same,IC50,MDA-MB-231 [5],830 nM
same,IC50,A549,3480 nM
same,Activity,MDA-MB-231 [6],Active
same,Activity,MDA-MB-231 [7],Active
same,viability at 0.4 µM,MDA-MB-231 [8],71.2%
same,Activity,MDA-MB-231 [9],14.2%
same,Activity,MDA-MB-231 [10],13.2%
same,viability at 0.8 µM,MDA-MB-231 [11],24.8%
same,Activity,MDA-MB-231 [12],40.3%
same,viability at 1.2 µM,MDA-MB-231 [13],6.61%
same,Activity,MDA-MB-231 [14],71%
same,Activity,MDA-MB-231 [15],16.4%
same,Activity,MDA-MB-231 [16],6.03%
same,"viability at 24 h, 0.4 µM",[17],94.9%
same,Activity,MCF-10A [18],0.36%
same,Activity,MCF-10A [19],2.18%
same,Activity,MCF-10A [20],3.77%
same,Activity,MCF-10A [21],0.36%
same,"viability at 24 h, 1.2 µM",[22],93.3%
same,Activity,MCF-10A [23],3.73%
same,Activity,MDA-MB-231 [24],68.1%
same,Activity,MDA-MB-231 [25],74.2%
same,Activity,MDA-MB-231 [26],16.5%
same,Activity,MDA-MB-231 [27],7.3%
same,inhibition,MDA-MB-231 [28],Active
same,inhibition,MDA-MB-231 [29],Active
same,Activity,MDA-MB-231 [30],0.22%
same,inhibition in vivo at 20 mg/kg,MDA-MB-231 [31],63.1%
same,Activity,[32],Non-toxic
